In paper PMC11284800 (Journal of Medicinal Chemistry, 2024):
Like-named read-outs stand apart in the source and are kept apart here.

How the values were obtained:
human CB2R = biological target: T1, human CB2R (Homo sapiens, UniProt P34972); assay: [3H]CP55,940 displacement assay on CHO membranes, CB2R; assay type: binding; conditions: for Ki: [3H]CP55,940 displacement; for hCB2R % displacement at 10 µM: [3H]CP55,940 displacement at 10 µM compound, ± SEM; for Binding to CB2R (in words): radioligand binding assay
T1 construct: host or cells: CHO-K1 (CHOK1hCB2_bgal)
T1 sequence (P34972 whole entry): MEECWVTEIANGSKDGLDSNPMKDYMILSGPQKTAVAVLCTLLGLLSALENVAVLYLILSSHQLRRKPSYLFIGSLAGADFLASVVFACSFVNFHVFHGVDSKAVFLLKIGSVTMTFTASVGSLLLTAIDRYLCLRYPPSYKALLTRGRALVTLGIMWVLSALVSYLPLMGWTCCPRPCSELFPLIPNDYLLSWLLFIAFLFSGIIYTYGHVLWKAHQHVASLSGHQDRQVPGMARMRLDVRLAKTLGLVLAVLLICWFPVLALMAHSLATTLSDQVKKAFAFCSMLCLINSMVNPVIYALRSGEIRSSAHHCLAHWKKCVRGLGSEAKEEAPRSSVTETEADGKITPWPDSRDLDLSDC

[1] = Photophysical characterization in PBS; assay type: physicochemical; conditions: PBS pH 7.4
hCB1R = hCB1R (Homo sapiens, UniProt P21554); assay: [3H]CP55,940 displacement assay on CHO membranes, CB1R; assay type: binding; set-up: host or cells: CHO-K1 (CHOK1hCB1_bgal); conditions: for Ki: [3H]CP55,940 displacement; for hCB1R % displacement at 10 µM: [3H]CP55,940 displacement at 10 µM compound, ± SEM; for Binding to CB1R (in words): radioligand binding assay
Chain of hCB1R (P21554 whole entry): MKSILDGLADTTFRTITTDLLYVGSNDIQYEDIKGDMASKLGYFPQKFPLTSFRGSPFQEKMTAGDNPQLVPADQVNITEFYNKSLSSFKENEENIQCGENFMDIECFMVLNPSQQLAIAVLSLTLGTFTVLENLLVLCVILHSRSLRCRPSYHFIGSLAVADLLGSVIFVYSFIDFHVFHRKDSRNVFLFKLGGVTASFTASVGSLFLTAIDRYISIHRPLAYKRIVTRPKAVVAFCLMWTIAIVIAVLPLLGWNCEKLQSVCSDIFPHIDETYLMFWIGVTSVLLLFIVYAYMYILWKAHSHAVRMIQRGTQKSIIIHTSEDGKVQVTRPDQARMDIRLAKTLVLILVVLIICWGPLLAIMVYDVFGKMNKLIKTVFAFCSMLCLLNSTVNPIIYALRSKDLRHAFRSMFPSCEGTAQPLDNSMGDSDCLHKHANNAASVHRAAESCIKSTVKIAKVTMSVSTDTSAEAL

[2] = CHO membranes stably expressing human CB2R, means of three experiments, read-out: hCB2R Ki
[3] = CHO membranes stably expressing human CB1R, means of three experiments, read-out: hCB1R Ki
[4] = hCB2R Ki, CHO membranes stably expressing human CB2R, means of three experiments
[5] = hCB1R Ki, CHO membranes stably expressing human CB1R, means of three experiments

Compound | Ki (human CB2R; [2]) | Abs (absorbance maximum) [1] | Em (emission maximum) [1] | QY (quantum yield) [1] | Ki (hCB1R; [3]) | Ki (human CB2R; [4]) | hCB1R % displacement at 10 µM (hCB1R) | Ki (hCB1R; [5]) | other results
CCC(CC)(NC(=O)c1cc(-c2cc(C(F)(F)F)ccc2C(F)(F)F)n(C[C@H]2CCCO2)c1C)C(=O)NCCOCCOCCNc1ccc([N+](=O)[O-])c2nsnc12 [Compound 51, (R)-5-(2,5-Bis(trifluoromethyl)phenyl)-2-methyl-N-(3-((2-(2-(2-((7-nitrobenzo[c][1,2,5]thiadiazol-4-yl)amino)ethoxy)ethoxy)ethyl)carbamoyl)pentan-3-yl)-1-((tetrahydrofuran-2-yl)methyl)-1H-pyrrole-3-carboxamide] | 0.493 µM | 465 nm | 550 nm | 0.30% | 0.316 µM | – | – | – | –
CCC(CC)(NC(=O)c1nn(-c2ccc(Cl)cc2Cl)c2c1CCCc1cc(Cl)ccc1-2)C(=O)NCCOCCOCCNC(=O)OC(C)(C)C [Compound 24, tert-Butyl (1-(8-Chloro-1-(2,4-dichlorophenyl)-1,4,5,6-tetrahydrobenzo[6,7]cyclohepta[1,2-c]pyrazol-3-yl)-3,3-diethyl-1,4-dioxo-8,11-dioxa-2,5-diazatridecan-13-yl)carbamate] | – | – | – | – | – | 0.776 µM | 28 ± 3% | > 10 µM | –
CCC(CC)(NC(=O)c1cnc(OCCOC)c(-c2ccc(Cl)cc2)n1)C(=O)NCCOCCOCCNC(=O)OC(C)(C)C [Compound 26, tert-Butyl (1-(6-(4-Chlorophenyl)-5-(2-methoxyethoxy)pyrazin-2-yl)-3,3-diethyl-1,4-dioxo-8,11-dioxa-2,5-diazatridecan-13-yl)carbamate] | 0.701 µM | – | – | – | > 10 µM | – | 32 ± 6% | – | –
CCC(CC)(NC(=O)c1nn(-c2ccc(Cl)cc2Cl)c(-c2ccc(Cl)cc2)c1C)C(=O)NCCOCCNC(=O)OC(C)(C)C [Compound 23a, tert-Butyl (2-(2-(2-(5-(4-Chlorophenyl)-1-(2,4-dichlorophenyl)-4-methyl-1H-pyrazole-3-carboxamido)-2-ethylbutanamido)ethoxy)ethyl)carbamate] | – | – | – | – | – | 1.59 µM | – | – | Ki (hCB1R; hCB1R pKi ± SEM, CHO membranes): 0.0372 µM
CCC(CC)(NC(=O)c1nn(-c2ccc(Cl)cc2Cl)c2c1CCCc1cc(Cl)ccc1-2)C(=O)NCCOCCOCCNc1ccc([N+](=O)[O-])c2nonc12 [Compound 32, 8-Chloro-1-(2,4-dichlorophenyl)-N-(3-((2-(2-(2-((7-nitrobenzo[c][1,2,5]oxadiazol-4-yl)amino)ethoxy)ethoxy)ethyl)carbamoyl)pentan-3-yl)-1,4,5,6-tetrahydrobenzo[6,7]cyclohepta[1,2-c]pyrazole-3-carboxamide] | – | 485 nm | 570 nm | 1.30% | – | 0.309 µM | 35 ± 6% | > 10 µM | –
CCC(CC)(NC(=O)c1nn(-c2ccc(Cl)cc2Cl)c2c1CCCc1cc(Cl)ccc1-2)C(=O)NCCOCCOCCNC(=O)c1ccc2c(c1)C(=O)OC21c2ccc(N(C)C)cc2Oc2cc(N(C)C)ccc21 [Compound 33] | – | 520 nm | 585 nm | 11.10% | – | – | -5 ± 1% | – | hCB2R % displacement at 10 µM (human CB2R): 21 ± 3%; Binding to CB2R (in words) (human CB2R): did not bind; Ki (human CB2R; read-out: hCB2R Ki, CHO membranes stably expressing human CB2R, means of three experiments): > 10 µM; Binding to CB1R (in words) (hCB1R): did not bind; Ki (hCB1R; read-out: hCB1R Ki, CHO membranes stably expressing human CB1R, means of three experiments): > 10 µM
CCC(CC)(NC(=O)c1cc(-c2cc(C(F)(F)F)ccc2C(F)(F)F)n(C[C@H]2CCCO2)c1C)C(=O)NCCOCCOCCNc1ccc([N+](=O)[O-])c2n[nH]nc12 [Compound 52, (R)-5-(2,5-Bis(trifluoromethyl)phenyl)-2-methyl-N-(3-((2-(2-(2-((7-nitro-2H-benzo[d][1,2,3]triazol-4-yl)amino)ethoxy)ethoxy)ethyl)carbamoyl)pentan-3-yl)-1-((tetrahydrofuran-2-yl)methyl)-1H-pyrrole-3-carboxamide] | 1.62 µM | 425 nm | 495 nm | 0.10% | 0.225 µM | – | – | – | –
CCC(CC)(NC(=O)c1nn(Cc2cccc(F)c2)c2ccccc12)C(=O)NCCOCCOCCNC(=O)OC(C)(C)C [Compound 27, tert-Butyl (3,3-Diethyl-1-(1-(3-fluorobenzyl)-1H-indazol-3-yl)-1,4-dioxo-8,11-dioxa-2,5-diazatridecan-13-yl)carbamate] | – | – | – | – | – | 0.108 µM | 48 ± 2% | > 10 µM | –
CCC(CC)(NC(=O)c1cnc(OCCOC)c(-c2ccc(Cl)cc2)n1)C(=O)NCCOCCOCCNc1ccc([N+](=O)[O-])c2nonc12 [Compound 34, 6-(4-Chlorophenyl)-5-(2-methoxyethoxy)-N-(3-((2-(2-(2-((7-nitrobenzo[c][1,2,5]oxadiazol-4-yl)amino)ethoxy)ethoxy)ethyl)carbamoyl)pentan-3-yl)pyrazine-2-carboxamide] | – | 480 nm | 545 nm | 2.00% | > 10 µM | – | 32 ± 6% | – | Ki (human CB2R; CHO membranes, read-out: hCB2R pKi ± SEM (converted)): 0.708 µM
CCC(CC)(NC(=O)c1cc(-c2cc(C(F)(F)F)ccc2C(F)(F)F)n(C[C@H]2CCCO2)c1C)C(=O)NCCOCCNC(=O)OC(C)(C)C [Compound 22a, tert-Butyl (R)-(2-(2-(2-(5-(2,5-Bis(trifluoromethyl)phenyl)-2-methyl-1-((tetrahydrofuran-2-yl)methyl)-1H-pyrrole-3-carboxamido)-2-ethylbutanamido)ethoxy)ethyl)carbamate] | > 10 µM | – | – | – | 1.42 µM | – | – | – | hCB2R % displacement at 10 µM (human CB2R): 20 ± 3%
CCC(CC)(NC(=O)c1cnc(OCC2CC2)c(-c2ccc(F)cc2)c1)C(=O)NCCOCCOCCNc1ccc([N+](=O)[O-])c2nonc12 [Compound 40, 6-(Cyclopropylmethoxy)-5-(4-fluorophenyl)-N-(3-((2-(2-(2-((7-nitrobenzo[c][1,2,5]oxadiazol-4-yl)amino)ethoxy)ethoxy)ethyl)carbamoyl)pentan-3-yl)nicotinamide] | – | 465 nm | 550 nm | 1.30% | – | 0.481 µM | 34 ± 1% | > 10 µM | –
CCC(CC)(NC(=O)c1cnc(OCCOC)c(-c2ccc(Cl)cc2)n1)C(=O)NCCOCCOCCNC(=O)c1ccc2c(c1)C(=O)OC21c2ccc(N(C)C)cc2Oc2cc(N(C)C)ccc21 [Compound 35] | > 10 µM | 560 nm | 590 nm | 56.20% | > 10 µM | – | -6 ± 5% | – | hCB2R % displacement at 10 µM (human CB2R): 2 ± 0%; Binding to CB2R (in words) (human CB2R): did not bind; Binding to CB1R (in words) (hCB1R): did not bind
CCC(CC)(NC(=O)c1cnc(OCC2CC2)c(-c2ccc(F)cc2)c1)C(=O)NCCOCCOCCNC(=O)c1ccc2c(c1)C(=O)OC21c2ccc(N(C)C)cc2Oc2cc(N(C)C)ccc21 [Compound 41] | > 10 µM | 560 nm | 585 nm | 47.40% | > 10 µM | – | 9 ± 1% | – | hCB2R % displacement at 10 µM (human CB2R): 27 ± 3%; Binding to CB2R (in words) (human CB2R): did not bind; Binding to CB1R (in words) (hCB1R): did not bind
CCC(CC)(NC(=O)c1nn(-c2ccc(Cl)cc2Cl)c(-c2ccc(Cl)cc2)c1C)C(=O)NCCOCCOCCOCCNC(=O)OC(C)(C)C [Compound 23c, tert-Butyl (1-(5-(4-Chlorophenyl)-1-(2,4-dichlorophenyl)-4-methyl-1H-pyrazol-3-yl)-3,3-diethyl-1,4-dioxo-8,11,14-trioxa-2,5-diazahexadecan-16-yl)carbamate] | – | – | – | – | – | 2.12 µM | – | 0.397 µM | –
CCC(CC)(NC(=O)c1nn(-c2ccc(Cl)cc2Cl)c(-c2ccc(Cl)cc2)c1C)C(=O)NCCOCCOCCOCCOCCNC(=O)OC(C)(C)C [Compound 23d, tert-Butyl (1-(5-(4-Chlorophenyl)-1-(2,4-dichlorophenyl)-4-methyl-1H-pyrazol-3-yl)-3,3-diethyl-1,4-dioxo-8,11,14,17-tetraoxa-2,5-diazanonadecan-19-yl)carbamate] | – | – | – | – | – | 2.12 µM | – | 0.603 µM | –
CCC(CC)(NC(=O)c1cc(-c2cc(C(F)(F)F)ccc2C(F)(F)F)n(C[C@H]2CCCO2)c1C)C(=O)NCCOCCOCCOCCNC(=O)OC(C)(C)C [Compound 22c, tert-Butyl (R)-(1-(5-(2,5-Bis(trifluoromethyl)phenyl)-2-methyl-1-((tetrahydrofuran-2-yl)methyl)-1H-pyrrol-3-yl)-3,3-diethyl-1,4-dioxo-8,11,14-trioxa-2,5-diazahexadecan-16-yl)carbamate] | > 10 µM | – | – | – | 1.22 µM | – | – | – | hCB2R % displacement at 10 µM (human CB2R): 23 ± 5%
CCC(CC)(NC(=O)c1cnc(OCC2CC2)c(-c2ccc(F)cc2)c1)C(=O)NCCOCCOCCNC(=O)OC(C)(C)C [Compound 25, tert-Butyl (1-(6-(Cyclopropylmethoxy)-5-(4-fluorophenyl)pyridin-3-yl)-3,3-diethyl-1,4-dioxo-8,11-dioxa-2,5-diazatridecan-13-yl)carbamate] | – | – | – | – | – | 0.818 µM | – | 3.06 µM | Ki (hCB1R; hCB1R pKi ± SEM, CHO membranes): 3.02 µM
